The text below walks through data of US10287337B2 (priority 2015, dated 2019).

Assay [1] deals with tibial neuroma-induced neuropathic pain in rats. Put plainly: Tibial neuroma transposition model, neuroma tenderness. The assay is classed as in vivo, rat. To be noted: injected into skin over neuroma site. An excerpt:
Sprague Dawley rats (male, approximately 400 g) were undergone surgery as described by Dorsi et al., briefly, a 2-3 cm incision was made through the skin and subcutaneous fascia of the ventral surface of the pelvic leg extending from the tarsometatarsal joint to approximately 1 cm distal to the level of the stifle the nerve was isolated and the posterior tibial branch was ligated and then sharply transected approximately 2 mm distal to the ligature, as illustrated in FIG. 8A. After the medial skin incision closure, the rat was transferred to a recovery cage devoid of bedding and placed halfway upon a recirculating hot water pad until standing; once recovered, the rat was returned to its home cage and monitored daily for signs of pain and wound dehiscence.
The rats were allowed to recover from the surgical procedure before beginning behavioral testing to assess neuroma development. On post-operative days 7 and 14, rats were assessed for mechanical pain using the “up-down” method of Von Frey mechanical testing and direct mechanical stimulation of the neuroma (referred to as neuroma tenderness testing). Neuroma tenderness was tested by applying the 15 g filament to the neuroma site up to five times in a series with a three second break between applications; the series was completed and scored as a positive as soon as a positive withdrawal response is seen. […]

The test system of assay [2] is paw incision-induced postoperative pain in rats. The assay is described as follows: Paw incision-induced postoperative pain model, mechanical pain threshold. Type of assay: in vivo, rat. The source says:
A clinically applicable incision model in rodents is a hind-paw deep incision that produces a robust mechanical and cold allodynia, and thermal hyperalgesia (Pogatzki et al., 2003; Xu and Brennan, 2010). Male rats (Sprague-Dawley, 250-260 g, Harlan) used (n=8/group) were anesthetized with 2.5% isoflurane and the skin of the dorsolateral hindpaw surface were prepped by first depilitating it (using Nair), followed by rinsing and application of povidone-iodine. Afterwards, a 5 mm longitudinal incision was made near the hairy/glabrous border though the skin and subcutaneous fascia of the left hindpaw as described by (Pogatzki et al., 2003; Xu and Brennan, 2010). After briefly elevating the underlying muscle with curved forceps the wound is closed with a single nylon (8-0) mattress stitch.
Pre-surgery (baseline) and 24 hours after the surgery, the mechanical allodynia of the incision hindpaws of the rats were assessed using von Frey monofilaments with an up/down procedure (Chaplan et al., 1994). […] Mechanical pain thresholds were measured at 0.5, 1, 2, 3, 4, 5 and 6 hours post-intradermal injection.

Assay [3] has as its system UVB radiation-induced inflammatory pain in rat cheek. The assay is classed as in vivo. As to conditions: topical application 10 μM, 100 μL, 2% propylene glycol, UVB-irradiated cheek.
[4] abbreviates: intradermal injection 1 μM, 50 μL, 24 hours after incision.
The mark [5] stands for this setting: prevention: injection 1 μM, 50 μL just prior to closing of the wound.

On to “H-NFVPTNVGPFAF-NH2 [AFA-peptide 3, NH2-N-F-V-P-T-N-V-G-P-F-A-F-CONH2]”, for which the “duration of analgesic effect” value in assay [1] lay in the range of 3 to 4 h. In assay [1] (0.3 and 1 μM, 50 μL), the “neuroma tenderness (in words)” value was “reduced neuroma tenderness in dose-related manner”. Also, in assay [2] (setting [4]), the duration of action entry is on record as “around 6 hours” and the “mechanical pain threshold (in words)” value is “significantly increased”. Moreover, in assay [2] (setting [5]), the duration of action worked out at 24 h and the “mechanical pain thresholds vs vehicle (in words)” value is “significantly increased mechanical pain thresholds”. In assay [2] (prevention: injection just prior to closing of the wound, second timepoint assessed), the “onset of analgesic effect post treatment” value stood at 1 h. In addition, the “A-delta-fiber-mediated responses (in words)” value in assay [3] is on record as “little effects”.
